These results are taken from US12187705B2, “Heteroaryl-triazole and heteroaryl-tetrazole compounds as pesticides” (Bayer Aktiengesellschaft, priority 2018, dated 2025).

Common to all, as to assay type: in vivo
For assay [1], the system named is Myzus persicae. As to the kind of experiment: Myzus persicae spray test. The note with it: in Brassica rapa, foliar, 120 h. In outline: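 Percent kill was recorded 5 days after spraying. Test solutions, prepared with solvent and diluted in 1000 ppm emulsifier water, were applied to Brassica pekinensis leaf disks carrying mixed-instar green peach aphids.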
The subject of assay [2] is Aedes aegypti strain MONHEIM. As to the kind of experiment: Aedes aegypti test (AEDSAE surface treatment & contact assay). The note with it: 24 hours after contact, read-out: efficacy (mortality); for mortality at 4 mg/m2: surface concentration 4 mg/m^2, 30 minutes exposure; for mortality at 20 mg/m2: surface concentration 20 mg/m^2, 30 minutes exposure. In outline: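 Compound dissolved in acetone (2 mg/ml) with 2000 ppm rapeseed oil methyl ester and dried onto a glazed tile. Adult mosquitoes held on the treated surface for 30 minutes exposure. Percent mortality scored 24 hours after contact.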

Assay [3] relates to Myzus persicae. As to the kind of experiment: Myzus persicae oral test. The note with it: 120 h. In a few lines: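 Feeding test: compound diluted in water was combined with IPL41 insect medium (33%+15% sugar) under a parafilm seal. A mixed population of green peach aphids fed through the membrane. Mortality (%) was scored after 5 days.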
Assay [4] concerns Ctenocephalides felis. Put plainly: Ctenocephalides felis in-vitro contact test adult cat flea. Particulars: Ctenocephalides felis; 5 μg/cm^2 (=500 g/ha), after 48 hours; read-out: efficacy (fleas dead or moribund). In a few lines:
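Efficacy (% dead or moribund) was scored 48 h after adult Ctenocephalides felis were confined in tubes coated with the acetone-applied compound (900 ppm, 5 μg/cm^2). Moribund status was judged by failure to escape a 45-50° C heating plate within 5 minutes.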

The test system of the next assay is Boophilus microplus. Put plainly: Boophilus microplus injection test. Particulars: Rhipicephalus microplus, 168 h, 20 μg/animal, egg deposition after 7 days, read-out: efficacy (infertile eggs). In outline:
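Efficacy expresses the share of infertile eggs (100% all infertile, 0% all fertile), judged at 7 days or at hatching around day 42. Five adult engorged females were each injected abdominally with 1 μl of DMSO compound solution and incubated in a climate chamber.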

Another assay deals with Nilaparvata lugens. Put plainly: Nilaparvata lugens spray test. Particulars: Nilaparvata lugens, in Oryza sativa, 96 h. In a few lines:
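Rice plants sprayed with compound diluted in water containing 1000 ppm emulsifier, then infested with brown planthopper. Mortality (%) scored after 4 days, 100% meaning all insects killed.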

In the next assay the test system is Nezara viridula. Put plainly: Nezara viridula spray test. The note with it: in Hordeum vulgare, 96 h. In a few lines: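 Barley plants infested with stink bug larvae were sprayed with compound diluted in water containing 1000 ppm emulsifier. Mortality (%) was scored after 4 days, 100% meaning all bugs killed.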
The subject of a further assay is Diabrotica balteata. Put plainly: Diabrotica balteata spray test. Particulars: Diabrotica balteata, 168 h; 160 μg/well, wheat seeds, after 7 days; read-out: efficacy (seedlings grown). In a few lines: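 Efficacy (%) read 7 days after infesting treated seedlings with 10-20 banded cucumber beetle larvae, 100% meaning growth as in uninfected untreated control and 0% no growth. Test solutions in water containing 1000 ppm emulsifier were sprayed onto wheat seeds germinated for 1 day on agar.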

Assay [5] deals with Ctenocephalides felis. As to the kind of experiment: Ctenocephalides felis oral test. Particulars: Ctenocephalides felis, in Bos taurus, po, 48 h. In a few lines: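 About 20 adult unfed fleas fed through parafilm on cattle blood containing compound (DMSO concentrate diluted in blood); blood held at 37° C., fleas at room temperature. Mortality in % scored after 2 days (100% = all killed).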

In assay [6] the test system is Culex quinquefasciatus strain P00. Put plainly: Culex quinquefasciatus test (CULXFA surface treatment & contact assay). The note with it: 24 hours after contact, read-out: efficacy (mortality); for mortality at 4 mg/m2: surface concentration 4 mg/m^2, 30 minutes exposure; for mortality at 20 mg/m2: surface concentration 20 mg/m^2, 30 minutes exposure. In outline: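 Compound dissolved in acetone (2 mg/ml) with 2000 ppm rapeseed oil methyl ester, applied to glazed tile and dried. Adult strain P00 mosquitoes exposed to the surface for 30 minutes. Percent mortality scored 24 hours after contact.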

Usually mortality stands for the share of the test organisms that died.

As to `C[C@@H](NC(=O)c1cc(Cl)cc(S(=O)(=O)C2CC2)c1)c1ncnn1-c1ncccn1` [Example I-042], the mortality at 500 g/ha came out at 90% with Myzus persicae [1], 100% with Nilaparvata lugens and 100% in the assay on Nezara viridula. Further, the mortality at 4 mg/m2 in [2] and in [6] was 80 to 100% throughout. In addition, the mortality at 20 mg/m2 in assay [2] lay within 90 to 100%; in assay [6] it was 80 to 100%. The compound also showed a mortality at 4 ppm in the assay with Myzus persicae [3] of 100%. In the assay with Ctenocephalides felis [4], the pest or weed control at 5 µg/cm2, 5 µg/cm2 was found to be 100%. In addition, the pest or weed control at 0.02 mg in the assay on Boophilus microplus is 100%. In addition, the pest or weed control at 160 µg/disc, 160 µg/well in the assay on Diabrotica balteata came out at 100%. This compound had a mortality at 100 ppm with Ctenocephalides felis [5] of 100%.
Regarding `CCN(C(=O)c1cc(Cl)cc(S(C)(=O)=O)c1)C(C)c1ncnn1-c1ncccn1` (stereo not drawn) [Example I-040, 3-chloro-N-ethyl-5-(methylsulfonyl)-N-{1-[1-(pyrimidin-2-yl)-1H-1,2,4-triazol-5-yl]ethyl}benzamide], the figures for the mortality at 500 g/ha in the assay with Myzus persicae [1], in the assay on Nilaparvata lugens and with Nezara viridula were 90%, 100% and 100%, respectively. Also, the mortality at 4 mg/m2 in [2] and in assay [6] was 80 to 100% in each case. Also, the mortality at 20 mg/m2 in [2] was 90 to 100%; in assay [6], 80 to 100%. For the same compound, the mortality at 4 ppm with Myzus persicae [3] worked out at 100%. Besides, the pest or weed control at 5 µg/cm2, 5 µg/cm2 in the assay on Ctenocephalides felis [4] came to 100%. The pest or weed control at 0.02 mg with Boophilus microplus was determined as 100%. The pest or weed control at 160 µg/disc, 160 µg/well in the assay on Diabrotica balteata is 100%. In the assay with Ctenocephalides felis [5], this compound gave a mortality at 100 ppm of 100%.
